US20250262222A1, “HETEROCYCLIC COMPOUNDS, COMPOSITIONS THEREOF, AND METHODS OF TREATMENT THEREWITH” (BeiGene Switzerland GmbH, priority 2022, published 2025)

Tested on: pERK1/2(THR202/TYR204) level in AsPC-1 cell line
Test: KRAS G12D pERK assay
Type: cell-based
Conditions: AsPC-1 cells, 2 h compound treatment, HTRF
Experimental: AsPC-1 cell line was used in this study. Cells were maintained in RPMI-1640 supplemented with 10% fetal bovine serum (Thermo Fisher), 50 units/mL penicillin and streptomycin (Thermo Fisher) and kept at 37° C. in a humidified atmosphere of 5% CO2 in air. Cells were reinstated from frozen stocks that were laid down within 30 passages from the original cells purchased. 30000 cells per well were seeded into a 96-well plate and incubated overnight. Cells were treated with a 10-point dilution series. The final compound concentration is from 0 to 10 μM. After 2 h compound treatment, cells were lysed, and the pERK1/2(THR202/TYR204) level in the cell lysates was detected by HTRF kit (Cisbio). In brief, a total of 16 μL of cell lysate from each well of a 96-well plate was transferred to a 384-well white assay plate. Lysate from each well was incubated with 2 μL of Eu3+-cryptate (donor) labeled anti-phospho-ERK1/2 and 2 μL of D2 (acceptor) labeled anti-phospho-ERK1/2 antibodies (Cisbio) overnight in dark at room temperature. When donor and acceptor are in close proximity, excitation of the donor with laser triggers a Fluorescence Resonance Energy Transfer (FRET) towards the acceptor, which in turn fluoresces at 655 nm wavelength. FRET signals were measured using a PHERAstar FSX reader (BMG Labtech). IC50 determination was performed by fitting the curve of percent inhibition versus the log of the inhibitor concentration using Dotmatics.

SMILES | IC50 (Homo sapiens, ASPC1, 2 h) | IC50
Oc1cc(Cl)c(C2CC2)c(-c2nc3c4c(nc(OCC56COC(C5)C6)nc4c2F)N2C[C@H]4CC[C@H](N4)[C@H]2CCO3)c1 [Example 38, 3-((6aR,7S,10R)-13-((2-oxabicyclo[2.1.1]hexan-4-yl)methoxy)-1-fluoro-5,6,6a,7,8,9,10,11-octahydro-4-oxa-3,11a,12,14,15-pentaaza-7,10-methanocyclohepta[4,5]cyclo-octa[1,2,3-de]naphthalen-2-yl)-5-chloro-4-cyclopropylphenol] | 1870 nM | 
COC1(COc2nc3c4c(nc(-c5cc(N)cc(Cl)c5C(F)(F)F)c(F)c4n2)OCC[C@@H]2[C@@H]4CC[C@H](CN32)N4)COC1 [Example 61, 3-chloro-5-((6aR,7S,10R)-1-fluoro-13-((3-methoxyoxetan-3-yl)methoxy)-5,6,6a,7,8,9,10,11-octahydro-4-oxa-3,11a,12,14,15-pentaaza-7,10-methanocyclohepta[4,5]cyclo-octa[1,2,3-de]naphthalen-2-yl)-4-(trifluoromethyl)aniline] | 332 nM | 
Nc1cc(Cl)c(C(F)(F)F)c(-c2nc3c4c(nc(OCC5(C(F)F)CCOC5)nc4c2F)N2C[C@H]4CC[C@H](N4)[C@H]2CCO3)c1 (stereo partly drawn) [Example 63, 3-chloro-5-((6aR,7S,10R)-13-((3-(difluoromethyl)tetrahydrofuran-3-yl)methoxy)-1-fluoro-5,6,6a,7,8,9,10,11-octahydro-4-oxa-3,11a,12,14,15-pentaaza-7,10-methanocyclohepta[4,5]cyclo-octa[1,2,3-de]naphthalen-2-yl)-4-(trifluoromethyl)aniline] | 151 nM | 
Cc1cc(N)cc(-c2nc3c4c(nc(OCC56COC(CF)(C5)C6)nc4c2F)N2C[C@H]4CC[C@H](N4)[C@H]2CCO3)c1C(F)(F)F [Example 49, 3-((6aR,7S,10R)-1-fluoro-13-((1-(fluoromethyl)-2-oxabicyclo[2.1.1]hexan-4-yl)methoxy)-5,6,6a,7,8,9,10,11-octahydro-4-oxa-3,11a,12,14,15-pentaaza-7,10-methanocyclohepta[4,5]cyclo-octa[1,2,3-de]naphthalen-2-yl)-5-methyl-4-(trifluoromethyl)aniline] | 172 nM | 
Nc1cc(Cl)c(C(F)(F)F)c(-c2nc3c4c(nc(OC[C@@]56CCCN5C[C@H](F)C6)nc4c2F)N2C[C@H]4CC[C@H](N4)C2CCO3)c1 (single isomer, unassigned) [Example 24] |  | 4.4 nM
Nc1cc(Cl)c(C(F)(F)F)c(-c2nc3c4c(nc(OCC56COC(C(F)(F)F)(C5)C6)nc4c2F)N2C[C@H]4CC[C@H](N4)[C@H]2CCO3)c1 [Example 53, 3-chloro-5-((6aR,7S,10R)-1-fluoro-13-((1-(trifluoromethyl)-2-oxabicyclo[2.1.1]hexan-4-yl)methoxy)-5,6,6a,7,8,9,10,11-octahydro-4-oxa-3,11a,12,14,15-pentaaza-7,10-methanocyclohepta[4,5]cyclo-octa[1,2,3-de]naphthalen-2-yl)-4-(trifluoromethyl)aniline] | 211 nM | 
C[C@](O)(COc1nc2c3c(nc(-c4cc(N)cc(Cl)c4C(F)(F)F)c(F)c3n1)OCC[C@@H]1[C@@H]3CC[C@H](CN21)N3)C(F)(F)F [Example 44, (S)-3-(((6aR,7S,10R)-2-(5-amino-3-chloro-2-(trifluoromethyl)phenyl)-1-fluoro-5,6,6a,7,8,9,10,11-octahydro-4-oxa-3,11a,12,14,15-pentaaza-7,10-methanocyclohepta[4,5]cyclo-octa[1,2,3-de]naphthalen-13-yl)oxy)-1,1,1-trifluoro-2-methylpropan-2-ol] | 2220 nM | 
Cc1cc(N)cc(-c2nc3c4c(nc(OCC56COCC(F)(C5)C6)nc4c2F)N2C[C@H]4CC[C@H](N4)[C@H]2CCO3)c1C(F)(F)F [Example 30, 3-((6aR,7S,10R)-1-fluoro-13-((5-fluoro-3-oxabicyclo[3.1.1]heptan-1-yl)methoxy)-5,6,6a,7,8,9,10,11-octahydro-4-oxa-3,11a,12,14,15-pentaaza-7,10-methanocyclohepta[4,5]cyclo-octa[1,2,3-de]naphthalen-2-yl)-5-methyl-4-(trifluoromethyl)aniline] | 198 nM | 
CC1(COc2nc3c4c(nc(-c5cc(N)cc(Cl)c5C(F)(F)F)c(F)c4n2)OCC[C@@H]2[C@@H]4CC[C@H](CN32)N4)COC1 [Example 66, 3-chloro-5-((6aR,7S,10R)-1-fluoro-13-((3-methyloxetan-3-yl)methoxy)-5,6,6a,7,8,9,10,11-octahydro-4-oxa-3,11a,12,14,15-pentaaza-7,10-methanocyclohepta[4,5]cyclo-octa[1,2,3-de]naphthalen-2-yl)-4-(trifluoromethyl)aniline] | 145 nM | 
CCc1cc(N)cc(-c2nc3c4c(nc(OCC56COC(C5)C6)nc4c2F)N2C[C@H]4CC[C@H](N4)[C@H]2CCO3)c1C(F)(F)F [Example 68, 3-((6aR,7S,10R)-13-((2-oxabicyclo[2.1.1]hexan-4-yl)methoxy)-1-fluoro-5,6,6a,7,8,9,10,11-octahydro-4-oxa-3,11a,12,14,15-pentaaza-7,10-methanocyclohepta[4,5]cycloocta[1,2,3-de]naphthalen-2-yl)-5-ethyl-4-(trifluoromethyl)aniline] | 548 nM | 
Cc1c(F)c(N)cc(-c2nc3c4c(nc(OCC5(C(F)F)COC5)nc4c2F)N2C[C@H]4CC[C@H](N4)[C@H]2CCO3)c1C(F)(F)F [Example 31, 5-((6aR,7S,10R)-13-((3-(difluoromethyl)oxetan-3-yl)methoxy)-1-fluoro-5,6,6a,7,8,9,10,11-octahydro-4-oxa-3,11a,12,14,15-pentaaza-7,10-methanocyclohepta[4,5]cyclo-octa[1,2,3-de]naphthalen-2-yl)-2-fluoro-3-methyl-4-(trifluoromethyl)aniline] | 162 nM | 
CCOC(=O)N1CC(C)(COc2nc3c4c(nc(-c5cc(N)cc(Cl)c5C(F)(F)F)c(F)c4n2)OCC[C@@H]2[C@@H]4CC[C@H](CN32)N4)C1 [Example 33, ethyl 3-((((6aR,7S,10R)-2-(5-amino-3-chloro-2-(trifluoromethyl)phenyl)-1-fluoro-5,6,6a,7,8,9,10,11-octahydro-4-oxa-3,11a,12,14,15-pentaaza-7,10-methanocyclohepta[4,5]cyclo-octa[1,2,3-de]naphthalen-13-yl)oxy)methyl)-3-methylazetidine-1-carboxylate] | 286 nM | 
Nc1cc(Cl)c(C(F)(F)F)c(-c2nc3c4c(nc(OCC56COCC(C5)C6)nc4c2F)N2C[C@H]4CC[C@H](N4)[C@H]2CCO3)c1 [Example 67, 3-((6aR,7S,10R)-13-((3-oxabicyclo[3.1.1]heptan-1-yl)methoxy)-1-fluoro-5,6,6a,7,8,9,10,11-octahydro-4-oxa-3,11a,12,14,15-pentaaza-7,10-methanocyclohepta[4,5]cyclo-octa[1,2,3-de]naphthalen-2-yl)-5-chloro-4-(trifluoromethyl)aniline] | 169 nM | 
Nc1cc(Cl)c(C(F)(F)F)c(-c2nc3c4c(nc(OC[C@@]56CCCN5C[C@H](F)C6)nc4c2F)N2CC4CCC(N4)C2CO3)c1 (stereo partly drawn) [Example 10, 3-chloro-5-(1-fluoro-12-(((2R,7aS)-2-fluorotetrahydro-1H-pyrrolizin-7a(5H)-yl)methoxy)-5a,6,7,8,9,10-hexahydro-5H-4-oxa-3,10a,11,13,14-pentaaza-6,9-methanonaphtho[1,8-ab]heptalen-2-yl)-4-(trifluoromethyl)aniline] | 58 nM | 
Cc1nc(N)cc(-c2nc3c4c(nc(OCC56COC(C5)C6)nc4c2F)N2CC4CCC(N4)[C@H]2CCO3)c1C(F)(F)F (stereo in doubt) [Example 42, 4-((6aR,7R,10S)-13-((2-oxabicyclo[2.1.1]hexan-4-yl)methoxy)-1-fluoro-5,6,6a,7,8,9,10,11-octahydro-4-oxa-3,11a,12,14,15-pentaaza-7,10-methanocyclohepta[4,5]cyclo-octa[1,2,3-de]naphthalen-2-yl)-6-methyl-5-(trifluoromethyl)pyridin-2-amine] | 1850 nM | 
COC(=O)N1CC(C)(COc2nc3c4c(nc(-c5cc(N)cc(C)c5C(F)(F)F)c(F)c4n2)OCC[C@@H]2[C@@H]4CC[C@H](CN32)N4)C1 [Example 43, methyl 3-((((6aR,7S,10R)-2-(5-amino-3-methyl-2-(trifluoromethyl)phenyl)-1-fluoro-5,6,6a,7,8,9,10,11-octahydro-4-oxa-3,11a,12,14,15-pentaaza-7,10-methanocyclohepta[4,5]cyclo-octa[1,2,3-de]naphthalen-13-yl)oxy)methyl)-3-methylazetidine-1-carboxylate] | 584 nM | 
COCC12CC(COc3nc4c5c(nc(-c6cc(N)cc(Cl)c6C(F)(F)F)c(F)c5n3)OCC[C@@H]3[C@@H]5CC[C@H](CN43)N5)(CO1)C2 [Example 39, 3-chloro-5-((6aR,7S,10R)-1-fluoro-13-((1-(methoxymethyl)-2-oxabicyclo[2.1.1]hexan-4-yl)methoxy)-5,6,6a,7,8,9,10,11-octahydro-4-oxa-3,11a,12,14,15-pentaaza-7,10-methanocyclohepta[4,5]cyclo-octa[1,2,3-de]naphthalen-2-yl)-4-(trifluoromethyl)aniline] | 409 nM | 
